Data: patent publication US20230101046A1, “ANAPLASTIC LYMPHOMA KINASE CHIMERIC ANTIGEN RECEPTORS AND METHODS OF USE” (The Children's Medical Center Corporation, priority 2020, published 2023)

Key:
Kelly or SH-SY5Y cells = assay: Viability / proliferation of neuroblastoma cell lines treated with lorlatinib; assay type: cell-based, human; conditions: 100 nM
Method: First generation ALK tyrosine kinase inhibitors (TKIs), such as crizotinib, have limited therapeutic efficacy in neuroblastoma, while the third generation ALK TKI, lorlatinib, is effective against mutated neuroblastoma (Infarinato N R, et al., The ALK/ROS1 Inhibitor PF-06463922 Overcomes Primary Resistance to Crizotinib in ALK-Driven Neuroblastoma. Cancer Discov 2016 January; 6(1):96-107). The effects of lorlatinib on ALK viability and expression in neuroblastoma cells was evaluated. Several neuroblastoma cell lines with various ALK genetic alterations, including NB-1 (ALK WT amplified), IMR-32 (ALK WT), NBL-S(ALK WT), SH-SY5Y (mutated ALK^F1174L), Kelly (mutated ALK^F1174L), were treated with increasing doses of lorlatinib (FIG. 10A). Viability was measured at 48 hours.
In white 96-well plates, 3×10^4 cells/mL were grown in triplicates. The treatment with lorlatinib was done after 24 hour. Cell growth was analyzed 5 days after treatment using Cell Titer-GloMax assay (Promega, Fitchburg, Wis., USA), according to the manufacturer's instructions. In 24-well plates, 5×10^4 cells/mL were grown in triplicates. […] Apoptosis was measured 48 hours after treatment by flow cytometry after staining with the FITC Annexin V and propidium iodide (PI) Staining Solution Apoptosis Detection Kit I (BD Pharmingen) according to the manufacturer's instructions.

[1] = system: Eμ-myc/ALK systemic tumors; assay: Adoptive transfer in CD19+/ALK+ systemic leukemia model; assay type: in vivo, mice
Method: The CD19+/ALK+systemic leukemia model was used to validate and rank cytolytic activity of ALK CARs in vivo. Adoptive transfer of ALK CAR-T cells was conducted in mice with Eμ-myc/ALK systemic tumors. Mice were treated with cytophspamide (CTX, 100 mg/kg) alone (n=8), cytophosphamide plus CAR-CD19 (15×10^6 based on GFP+) (n=8), or cytophosphamide plus CAR-ALK #5 (15×10^6 based on GFP+) (n=8). Untreated mice (n=6) were used as a negative control. FIG. 5A provides a survival curve of these treated mice.
Circulating CD19+/ALK+ tumor cells were found in peripheral blood (FIG. 5B, Left). An ALK+ tumor mass was isolated close to lymph node (FIG. 5B, Right). FACS analysis was also conducted on the 6 out of 8 mice that survived more than two months. No tumor cells were found in peripheral blood of these mice (FIG. 5C).

Row | Structure (SMILES) | reduction of proliferation (Kelly or SH-SY5Y cells) | tumor cells in peripheral blood by FACS ([1]; CD19+/ALK+ cells) | survival of mice ([1]; Eμ-myc/ALK systemic tumors, CTX 100 mg/kg, CAR-T 15×10^6 based on GFP+)
1 | C[C@H]1Oc2cc(cnc2N)-c2c(nn(C)c2C#N)CN(C)C(=O)c2ccc(F)cc21 [Lorlatinib, lorlatinib] | less than 50% | – | –
2 | O=P1(N(CCCl)CCCl)NCCCO1 (stereo not drawn) [cyclophosphamide] | – | CD19+/ALK+ cells were found in one mouse | died within one month
